{"source": "paper PMC7316778", "about": "(Nature Communications, 2020)", "key": {"[1]": {"molecular_target": "T1, endogenous FES^S700C in HL-60 cells (Homo sapiens, UniProt P07332, S700C)", "T1 construct": "endogenous in cells; host or cells: HL-60 FES^S700C clone, differentiated to macrophages or neutrophils", "T1 sequence (P07332 whole entry S700C)": "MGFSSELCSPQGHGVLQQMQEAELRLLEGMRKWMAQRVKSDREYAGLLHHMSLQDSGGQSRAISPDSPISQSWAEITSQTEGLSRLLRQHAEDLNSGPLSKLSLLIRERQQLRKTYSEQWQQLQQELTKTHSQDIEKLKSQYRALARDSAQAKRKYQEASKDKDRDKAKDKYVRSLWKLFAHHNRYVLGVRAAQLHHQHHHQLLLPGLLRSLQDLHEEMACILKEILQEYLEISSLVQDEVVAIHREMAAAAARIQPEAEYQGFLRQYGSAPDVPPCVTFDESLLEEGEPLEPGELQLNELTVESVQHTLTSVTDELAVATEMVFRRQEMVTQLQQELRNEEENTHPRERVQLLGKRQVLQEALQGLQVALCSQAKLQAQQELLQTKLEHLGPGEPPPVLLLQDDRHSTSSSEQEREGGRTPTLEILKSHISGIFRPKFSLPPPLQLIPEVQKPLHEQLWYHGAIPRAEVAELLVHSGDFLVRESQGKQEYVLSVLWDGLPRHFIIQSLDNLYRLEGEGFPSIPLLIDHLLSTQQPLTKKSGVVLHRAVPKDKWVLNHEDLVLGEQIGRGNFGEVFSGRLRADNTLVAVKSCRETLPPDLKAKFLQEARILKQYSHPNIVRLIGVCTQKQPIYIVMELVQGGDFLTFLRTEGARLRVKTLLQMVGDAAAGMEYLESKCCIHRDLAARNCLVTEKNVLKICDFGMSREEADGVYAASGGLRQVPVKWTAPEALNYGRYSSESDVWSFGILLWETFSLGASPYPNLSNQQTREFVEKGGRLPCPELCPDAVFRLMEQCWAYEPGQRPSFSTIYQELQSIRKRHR", "assay": "Gel-based target engagement during neutrophil differentiation", "assay_type": "cell-based", "conditions": "100 nM; Supplementary Figure 12b; individual replicates; listed as WEL028"}, "MAP2K5 (MEK5)": {"molecular_target": "T2, MAP2K5 (MEK5) (Homo sapiens, UniProt Q13163)", "T2 sequence (Q13163 1-448)": "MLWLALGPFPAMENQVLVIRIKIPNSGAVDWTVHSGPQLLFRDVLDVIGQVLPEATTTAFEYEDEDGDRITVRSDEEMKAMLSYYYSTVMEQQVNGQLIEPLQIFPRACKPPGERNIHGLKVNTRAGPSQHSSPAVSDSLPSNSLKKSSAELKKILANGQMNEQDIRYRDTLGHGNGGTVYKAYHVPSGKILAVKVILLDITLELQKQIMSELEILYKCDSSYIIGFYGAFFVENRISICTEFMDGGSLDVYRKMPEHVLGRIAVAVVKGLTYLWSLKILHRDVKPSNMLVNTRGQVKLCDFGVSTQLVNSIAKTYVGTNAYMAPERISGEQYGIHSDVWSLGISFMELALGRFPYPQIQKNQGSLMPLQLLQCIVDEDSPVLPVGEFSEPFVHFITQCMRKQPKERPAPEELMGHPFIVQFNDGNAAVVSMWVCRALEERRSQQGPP", "assay": "SelectScreen kinase assay"}, "~150 kDa protein": {"molecular_target": "~150 kDa protein (Homo sapiens, UniProt O14976)", "assay": "Gel-based target engagement in HL-60 neutrophils", "conditions": "HL-60, read-out: Inhibition of off-target labeling"}, "HIPK1 (Myak)": {"molecular_target": "HIPK1 (Myak) (Homo sapiens, UniProt Q86Z02)", "sequence (Q86Z02 whole entry)": "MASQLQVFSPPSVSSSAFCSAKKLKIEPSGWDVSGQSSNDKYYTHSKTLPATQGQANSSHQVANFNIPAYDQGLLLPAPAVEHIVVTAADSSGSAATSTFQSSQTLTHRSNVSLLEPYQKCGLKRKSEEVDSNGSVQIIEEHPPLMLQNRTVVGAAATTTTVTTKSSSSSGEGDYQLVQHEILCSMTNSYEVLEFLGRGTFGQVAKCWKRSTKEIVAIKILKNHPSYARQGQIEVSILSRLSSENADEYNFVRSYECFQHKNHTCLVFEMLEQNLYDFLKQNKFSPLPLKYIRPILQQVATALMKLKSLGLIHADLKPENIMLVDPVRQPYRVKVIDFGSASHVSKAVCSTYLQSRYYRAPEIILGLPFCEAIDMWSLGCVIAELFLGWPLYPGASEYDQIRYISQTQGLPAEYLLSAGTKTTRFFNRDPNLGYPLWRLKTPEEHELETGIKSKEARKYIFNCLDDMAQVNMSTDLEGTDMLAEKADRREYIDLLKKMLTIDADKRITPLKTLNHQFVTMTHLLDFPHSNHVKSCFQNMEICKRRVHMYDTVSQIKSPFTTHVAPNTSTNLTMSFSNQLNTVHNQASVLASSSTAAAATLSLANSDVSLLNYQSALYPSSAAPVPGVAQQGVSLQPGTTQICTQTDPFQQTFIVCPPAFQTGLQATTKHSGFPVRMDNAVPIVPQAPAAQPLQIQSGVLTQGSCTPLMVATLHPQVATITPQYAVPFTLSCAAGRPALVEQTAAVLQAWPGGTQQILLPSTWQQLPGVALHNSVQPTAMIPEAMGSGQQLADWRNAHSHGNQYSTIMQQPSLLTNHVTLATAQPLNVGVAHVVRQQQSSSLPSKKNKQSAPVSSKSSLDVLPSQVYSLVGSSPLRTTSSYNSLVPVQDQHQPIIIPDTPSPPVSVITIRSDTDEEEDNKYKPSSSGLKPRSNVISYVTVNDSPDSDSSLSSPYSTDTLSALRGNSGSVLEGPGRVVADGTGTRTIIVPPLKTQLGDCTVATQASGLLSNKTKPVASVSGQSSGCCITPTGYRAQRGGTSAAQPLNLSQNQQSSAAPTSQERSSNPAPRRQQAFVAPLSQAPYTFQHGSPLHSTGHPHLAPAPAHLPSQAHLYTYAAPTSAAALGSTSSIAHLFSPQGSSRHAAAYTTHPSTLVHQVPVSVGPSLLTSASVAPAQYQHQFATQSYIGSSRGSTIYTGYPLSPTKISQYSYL", "assay": "SelectScreen kinase assay", "conditions": "for Inhibition at 1 µM (%): HIPK1 (Myak), ZLYTE, ATP Km app"}, "MASTL": {"molecular_target": "MASTL (Homo sapiens, UniProt Q96GX5)", "sequence (Q96GX5 whole entry)": "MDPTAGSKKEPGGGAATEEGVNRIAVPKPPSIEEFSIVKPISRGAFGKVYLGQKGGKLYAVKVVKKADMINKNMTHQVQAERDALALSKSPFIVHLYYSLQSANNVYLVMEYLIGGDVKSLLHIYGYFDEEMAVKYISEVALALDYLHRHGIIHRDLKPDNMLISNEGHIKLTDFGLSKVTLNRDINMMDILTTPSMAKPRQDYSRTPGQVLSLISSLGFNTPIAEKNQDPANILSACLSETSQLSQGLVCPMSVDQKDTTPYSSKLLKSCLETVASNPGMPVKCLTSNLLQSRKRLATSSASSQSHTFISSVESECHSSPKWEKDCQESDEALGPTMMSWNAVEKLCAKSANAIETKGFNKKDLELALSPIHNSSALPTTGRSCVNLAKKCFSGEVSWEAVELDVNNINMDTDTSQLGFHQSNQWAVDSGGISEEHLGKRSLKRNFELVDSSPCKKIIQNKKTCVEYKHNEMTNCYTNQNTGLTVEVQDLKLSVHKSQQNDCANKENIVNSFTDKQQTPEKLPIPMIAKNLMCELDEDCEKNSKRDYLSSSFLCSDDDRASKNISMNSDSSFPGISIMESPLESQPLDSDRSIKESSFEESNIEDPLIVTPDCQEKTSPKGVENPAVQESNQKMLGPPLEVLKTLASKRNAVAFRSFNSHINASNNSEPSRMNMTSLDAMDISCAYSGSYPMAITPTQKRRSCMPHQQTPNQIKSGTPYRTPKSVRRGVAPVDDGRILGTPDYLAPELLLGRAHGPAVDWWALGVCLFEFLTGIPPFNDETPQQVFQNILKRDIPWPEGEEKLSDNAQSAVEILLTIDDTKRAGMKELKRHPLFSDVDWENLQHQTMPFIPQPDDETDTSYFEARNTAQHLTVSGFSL", "assay": "SelectScreen kinase assay"}, "GSK3A (GSK3 alpha)": {"molecular_target": "GSK3A (GSK3 alpha) (Homo sapiens, UniProt P49840)", "sequence (P49840 whole entry)": "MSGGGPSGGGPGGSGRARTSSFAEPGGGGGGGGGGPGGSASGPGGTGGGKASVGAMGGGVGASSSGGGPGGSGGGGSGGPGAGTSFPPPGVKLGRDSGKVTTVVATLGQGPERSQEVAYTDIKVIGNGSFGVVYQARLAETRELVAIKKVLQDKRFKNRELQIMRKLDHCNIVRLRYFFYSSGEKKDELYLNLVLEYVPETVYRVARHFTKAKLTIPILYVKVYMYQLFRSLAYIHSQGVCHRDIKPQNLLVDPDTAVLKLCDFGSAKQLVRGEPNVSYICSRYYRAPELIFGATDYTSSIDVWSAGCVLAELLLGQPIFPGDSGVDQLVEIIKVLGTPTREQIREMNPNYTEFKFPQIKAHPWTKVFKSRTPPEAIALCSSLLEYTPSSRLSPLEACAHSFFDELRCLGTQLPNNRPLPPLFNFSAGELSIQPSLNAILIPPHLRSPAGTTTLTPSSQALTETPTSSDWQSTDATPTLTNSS", "assay": "SelectScreen kinase assay"}, "TNK2 (ACK) [2]": {"test_system": "TNK2 (ACK)", "assay": "SelectScreen kinase assay", "conditions": "IC50 on that kinase divided by IC50 on FES^S700C"}, "TNK2 (ACK) [3]": {"molecular_target": "TNK2 (ACK) (Homo sapiens, UniProt Q07912)", "sequence (Q07912 whole entry, species assumed)": "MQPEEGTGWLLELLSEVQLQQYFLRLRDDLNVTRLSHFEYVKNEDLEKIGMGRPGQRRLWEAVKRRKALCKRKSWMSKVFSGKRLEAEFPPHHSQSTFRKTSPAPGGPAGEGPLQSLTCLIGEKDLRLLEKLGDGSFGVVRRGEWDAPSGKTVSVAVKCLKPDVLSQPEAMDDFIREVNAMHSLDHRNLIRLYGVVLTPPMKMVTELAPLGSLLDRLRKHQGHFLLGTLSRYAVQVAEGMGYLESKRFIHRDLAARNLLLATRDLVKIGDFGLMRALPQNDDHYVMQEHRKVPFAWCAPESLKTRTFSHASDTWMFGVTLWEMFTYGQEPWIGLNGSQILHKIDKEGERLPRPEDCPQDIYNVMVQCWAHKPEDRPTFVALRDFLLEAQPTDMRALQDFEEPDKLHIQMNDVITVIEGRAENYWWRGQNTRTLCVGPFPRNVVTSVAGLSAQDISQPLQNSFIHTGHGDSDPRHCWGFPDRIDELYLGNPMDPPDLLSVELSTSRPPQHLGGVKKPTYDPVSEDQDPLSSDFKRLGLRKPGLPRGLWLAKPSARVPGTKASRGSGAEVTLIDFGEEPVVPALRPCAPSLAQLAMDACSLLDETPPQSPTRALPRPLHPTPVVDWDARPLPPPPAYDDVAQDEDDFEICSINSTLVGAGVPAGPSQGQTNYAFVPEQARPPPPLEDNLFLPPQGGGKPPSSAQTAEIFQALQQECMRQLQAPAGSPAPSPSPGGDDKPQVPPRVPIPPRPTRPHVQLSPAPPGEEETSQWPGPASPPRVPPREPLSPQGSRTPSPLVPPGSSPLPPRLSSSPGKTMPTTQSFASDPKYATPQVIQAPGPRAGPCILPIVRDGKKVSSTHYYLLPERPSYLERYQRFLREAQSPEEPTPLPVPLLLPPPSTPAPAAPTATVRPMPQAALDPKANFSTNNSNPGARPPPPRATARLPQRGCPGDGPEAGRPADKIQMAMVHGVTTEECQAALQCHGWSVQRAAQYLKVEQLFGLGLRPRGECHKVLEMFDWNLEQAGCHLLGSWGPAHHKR", "assay": "SelectScreen kinase assay"}, "LIMK2": {"molecular_target": "LIMK2 (Homo sapiens, UniProt P53671)", "sequence (P53671 whole entry)": "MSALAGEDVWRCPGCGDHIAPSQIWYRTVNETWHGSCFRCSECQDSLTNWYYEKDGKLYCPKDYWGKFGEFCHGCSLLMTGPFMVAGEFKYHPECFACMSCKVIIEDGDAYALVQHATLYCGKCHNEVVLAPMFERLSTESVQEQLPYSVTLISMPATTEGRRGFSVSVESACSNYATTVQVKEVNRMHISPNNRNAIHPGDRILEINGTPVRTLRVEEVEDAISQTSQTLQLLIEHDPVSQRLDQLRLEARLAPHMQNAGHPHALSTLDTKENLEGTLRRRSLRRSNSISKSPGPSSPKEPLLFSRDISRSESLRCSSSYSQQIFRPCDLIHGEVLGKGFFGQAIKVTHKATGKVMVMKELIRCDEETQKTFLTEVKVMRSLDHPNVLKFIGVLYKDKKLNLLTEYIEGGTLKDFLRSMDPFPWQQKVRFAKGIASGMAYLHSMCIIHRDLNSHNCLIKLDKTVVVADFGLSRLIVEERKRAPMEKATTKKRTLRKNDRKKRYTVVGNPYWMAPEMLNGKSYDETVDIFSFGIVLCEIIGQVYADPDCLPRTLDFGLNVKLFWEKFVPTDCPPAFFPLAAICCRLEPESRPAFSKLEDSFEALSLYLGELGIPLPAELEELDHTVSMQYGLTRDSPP", "assay": "SelectScreen kinase assay"}, "ACVRL1 (ALK1)": {"molecular_target": "ACVRL1 (ALK1) (Homo sapiens, UniProt P37023)", "assay": "SelectScreen kinase assay"}, "MELK": {"molecular_target": "MELK (Homo sapiens, UniProt Q14680)", "assay": "SelectScreen kinase assay"}, "TEC": {"molecular_target": "T3, TEC (Homo sapiens, UniProt P42680)", "T3 sequence (P42680 1-631)": "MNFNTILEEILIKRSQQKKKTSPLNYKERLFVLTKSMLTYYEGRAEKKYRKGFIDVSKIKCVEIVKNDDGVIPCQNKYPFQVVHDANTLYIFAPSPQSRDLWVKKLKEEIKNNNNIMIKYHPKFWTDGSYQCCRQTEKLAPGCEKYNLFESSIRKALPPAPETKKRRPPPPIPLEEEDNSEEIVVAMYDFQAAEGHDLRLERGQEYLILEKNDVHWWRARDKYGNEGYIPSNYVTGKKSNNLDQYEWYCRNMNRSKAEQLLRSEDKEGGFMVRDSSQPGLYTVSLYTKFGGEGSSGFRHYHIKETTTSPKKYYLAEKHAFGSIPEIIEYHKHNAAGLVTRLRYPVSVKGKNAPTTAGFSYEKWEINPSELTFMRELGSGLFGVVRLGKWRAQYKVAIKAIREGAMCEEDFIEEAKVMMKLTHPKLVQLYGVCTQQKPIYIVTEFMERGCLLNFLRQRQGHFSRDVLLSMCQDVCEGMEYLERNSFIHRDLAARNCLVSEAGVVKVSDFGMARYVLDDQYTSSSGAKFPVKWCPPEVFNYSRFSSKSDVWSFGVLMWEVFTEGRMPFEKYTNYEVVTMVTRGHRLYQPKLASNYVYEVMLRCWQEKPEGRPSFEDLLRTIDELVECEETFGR", "assay": "SelectScreen kinase assay", "conditions": "for Inhibition at 1 µM (%): LanthaScreen Binding"}, "[4]": {"conditions": "1 h, 1 μM WEL028, 1 h preincubation"}}, "note": "pIC50: −log10 of the molar value. “And” between values parts separate entries of the source, which are not always exact repeats. Identical values can stand only once. Like-named read-outs stand apart in the source and are kept apart here.", "data": [{"smiles": "C#CCOc1ccc(Nc2ncc(Cl)c(Nc3ccccc3NC(=O)C=C)n2)c(OC)c1", "note": "[Compound 6]", "values": [{"measurement": "Relative FES labeling (%)", "setting": "[1]", "result": "10.1064% and 13.5252% and 6.003%"}, {"measurement": "inhibition at 1 µM", "setting": "MAP2K5 (MEK5); [4]", "result": 53, "unit": "%"}, {"measurement": "Inhibition at 1 µM (%)", "setting": "MAP2K5 (MEK5); MAP2K5 (MEK5), 1 µM, LanthaScreen Binding, listed as WEL028, 1 µM", "result": 52, "unit": "%"}, {"measurement": "inhibition at 1 µM", "setting": "MAP2K5 (MEK5); read-out: Inhibition at 1 µM (%), MAP2K5 (MEK5), 1 µM, LanthaScreen Binding", "result": 53, "unit": "%"}, {"measurement": "inhibition at 0.1 µM", "setting": "~150 kDa protein", "result": "~80", "unit": "%"}, {"measurement": "inhibition at 1 µM", "setting": "HIPK1 (Myak); [4]", "result": -4, "unit": "%"}, {"measurement": "Inhibition at 1 µM (%)", "setting": "HIPK1 (Myak)", "result": -2, "unit": "%"}, {"measurement": "Inhibition at 1 µM (%)", "setting": "HIPK1 (Myak); listed as WEL028, 1 µM", "result": -6, "unit": "%"}, {"measurement": "Inhibition (%)", "setting": "MASTL; 1 μM WEL028, 1 h preincubation", "result": 3, "unit": "%"}, {"measurement": "Inhibition at 1 µM (%)", "setting": "MASTL; MASTL, 1 µM, LanthaScreen Binding, listed as WEL028, 1 µM", "result": "6% and 0%"}, {"measurement": "inhibition at 1 µM", "setting": "GSK3A (GSK3 alpha); [4]", "result": 6, "unit": "%"}, {"measurement": "Inhibition at 1 µM (%)", "setting": "GSK3A (GSK3 alpha); GSK3A (GSK3 alpha), 1 µM, ZLYTE, ATP Km app, listed as WEL028, 1 µM", "result": 7, "unit": "%"}, {"measurement": "inhibition at 1 µM", "setting": "GSK3A (GSK3 alpha); read-out: Inhibition at 1 µM (%), GSK3A (GSK3 alpha), 1 µM, ZLYTE, ATP Km app", "result": 5, "unit": "%"}, {"measurement": "Apparent fold selectivity", "setting": "TNK2 (ACK) [2]", "result": 76, "unit": "fold"}, {"measurement": "pIC50", "setting": "TNK2 (ACK) [3]", "result": 6.50}, {"measurement": "Inhibition at 1 µM (%)", "setting": "TNK2 (ACK) [3]; 1 µM, LanthaScreen Binding, listed as WEL028, 1 µM", "result": 72, "unit": "%"}, {"measurement": "inhibition at 1 µM", "setting": "TNK2 (ACK) [3]; [4]", "result": 73, "unit": "%"}, {"measurement": "inhibition at 10 µM", "setting": "TNK2 (ACK) [3]; 1 h, log[inhibitor] (M) -5.00, LanthaScreen Binding", "result": 46, "unit": "%"}, {"measurement": "inhibition at 3.311 µM", "setting": "TNK2 (ACK) [3]; 1 h, log[inhibitor] (M) -5.48, LanthaScreen Binding", "result": 70, "unit": "%"}, {"measurement": "inhibition at 1.122 µM", "setting": "TNK2 (ACK) [3]; 1 h, log[inhibitor] (M) -5.95, LanthaScreen Binding", "result": 77, "unit": "%"}, {"measurement": "inhibition at 0.3715 µM", "setting": "TNK2 (ACK) [3]; 1 h, log[inhibitor] (M) -6.43, LanthaScreen Binding", "result": 48, "unit": "%"}, {"measurement": "inhibition at 0.123 µM", "setting": "TNK2 (ACK) [3]; 1 h, log[inhibitor] (M) -6.91, LanthaScreen Binding", "result": 25, "unit": "%"}, {"measurement": "inhibition at 0.04074 µM", "setting": "TNK2 (ACK) [3]; 1 h, log[inhibitor] (M) -7.39, LanthaScreen Binding", "result": 5, "unit": "%"}, {"measurement": "inhibition at 1 µM", "setting": "TNK2 (ACK) [3]; read-out: Inhibition at 1 µM (%), 1 µM, LanthaScreen Binding", "result": 74, "unit": "%"}, {"measurement": "inhibition at 1 µM", "setting": "LIMK2; [4]", "result": -2, "unit": "%"}, {"measurement": "Inhibition at 1 µM (%)", "setting": "LIMK2; LIMK2, 1 µM, LanthaScreen Binding, listed as WEL028, 1 µM", "result": "-5% and 1%"}, {"measurement": "inhibition at 1 µM", "setting": "ACVRL1 (ALK1); [4]", "result": 6, "unit": "%"}, {"measurement": "Inhibition at 1 µM (%)", "setting": "ACVRL1 (ALK1); ACVRL1 (ALK1), 1 µM, LanthaScreen Binding", "result": 12, "unit": "%"}, {"measurement": "inhibition at 1 µM", "setting": "MELK; [4]", "result": -2, "unit": "%"}, {"measurement": "Inhibition at 1 µM (%)", "setting": "MELK; MELK, 1 µM, ZLYTE, ATP Km app, listed as WEL028, 1 µM", "result": -3, "unit": "%"}, {"measurement": "Inhibition at 1 µM (%)", "setting": "TEC", "result": 2, "unit": "%"}, {"measurement": "Inhibition at 1 µM (%)", "setting": "TEC; listed as WEL028, 1 µM", "result": 7, "unit": "%"}, {"measurement": "inhibition at 1 µM", "setting": "TEC; [4]", "result": 5, "unit": "%"}]}]}
